Data as given in ChEMBL document CHEMBL2074216, “Novel camptothecin analogues that circumvent ABCG2-associated drug resistance in human tumor cells” (Int J Cancer, 2004).

Biological target: T1, Broad substrate specificity ATP-binding cassette transporter ABCG2 (Homo sapiens, UniProt Q9UNQ0)
T1 sequence (Q9UNQ0 whole entry): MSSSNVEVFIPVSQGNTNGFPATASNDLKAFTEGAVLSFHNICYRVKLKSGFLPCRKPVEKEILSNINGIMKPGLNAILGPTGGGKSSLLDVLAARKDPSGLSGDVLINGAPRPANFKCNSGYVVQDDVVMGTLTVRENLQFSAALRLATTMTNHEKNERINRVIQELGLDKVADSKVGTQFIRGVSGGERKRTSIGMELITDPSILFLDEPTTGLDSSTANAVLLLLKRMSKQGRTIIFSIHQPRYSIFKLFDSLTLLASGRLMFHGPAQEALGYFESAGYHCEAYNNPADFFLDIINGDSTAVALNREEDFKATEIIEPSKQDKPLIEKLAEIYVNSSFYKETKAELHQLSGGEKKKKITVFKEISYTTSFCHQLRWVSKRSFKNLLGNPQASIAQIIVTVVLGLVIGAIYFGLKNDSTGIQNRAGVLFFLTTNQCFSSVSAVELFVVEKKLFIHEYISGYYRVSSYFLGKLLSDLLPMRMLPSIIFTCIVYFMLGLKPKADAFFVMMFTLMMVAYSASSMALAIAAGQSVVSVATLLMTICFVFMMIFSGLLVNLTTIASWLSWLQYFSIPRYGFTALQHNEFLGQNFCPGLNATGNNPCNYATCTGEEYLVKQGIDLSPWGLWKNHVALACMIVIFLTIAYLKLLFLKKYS
Test: TP_TRANSPORTER: uptake in BCRP-expressing PC-6 cells
Assay type: functional, cell-based

Row | Compound | Activity
1 | CCc1c2c(nc3cc(F)c(O)cc13)-c1cc3c(c(=O)n1C2)COC(=O)[C@]3(O)CC | substrate []
2 | CCc1c2c(nc3cc(F)c(OC)cc13)-c1cc3c(c(=O)n1C2)COC(=O)[C@]3(O)CC | substrate []
3 | CCc1c2c(nc3cc(O)ccc13)-c1cc3c(c(=O)n1C2)COC(=O)[C@]3(O)CC | substrate []
4 | CCc1c2c(nc3cc(Br)ccc13)-c1cc3c(c(=O)n1C2)COC(=O)[C@]3(O)CC | substrate []
5 | CCc1c2c(nc3ccc(Cl)cc13)-c1cc3c(c(=O)n1C2)COC(=O)[C@]3(O)CC | substrate []
6 | CCc1c2c(nc3ccc(N)cc13)-c1cc3c(c(=O)n1C2)COC(=O)[C@]3(O)CC | substrate []
7 | CCc1c2c(nc3ccc(O)cc13)-c1cc3c(c(=O)n1C2)COC(=O)[C@]3(O)CC [7-ETHYL-10-HYDROXYCAMPTOTHECIN] | substrate []
